The values that follow come from patent publication US9169224B2, “Piperazinyl and piperidinyl ureas as modulators of fatty acid amide hydrolase” (Janssen Pharmaceutica NV, priority 2004, dated 2015).

pIC50: −log10 of the molar value.

Sequence of FAAH (O00519 whole entry): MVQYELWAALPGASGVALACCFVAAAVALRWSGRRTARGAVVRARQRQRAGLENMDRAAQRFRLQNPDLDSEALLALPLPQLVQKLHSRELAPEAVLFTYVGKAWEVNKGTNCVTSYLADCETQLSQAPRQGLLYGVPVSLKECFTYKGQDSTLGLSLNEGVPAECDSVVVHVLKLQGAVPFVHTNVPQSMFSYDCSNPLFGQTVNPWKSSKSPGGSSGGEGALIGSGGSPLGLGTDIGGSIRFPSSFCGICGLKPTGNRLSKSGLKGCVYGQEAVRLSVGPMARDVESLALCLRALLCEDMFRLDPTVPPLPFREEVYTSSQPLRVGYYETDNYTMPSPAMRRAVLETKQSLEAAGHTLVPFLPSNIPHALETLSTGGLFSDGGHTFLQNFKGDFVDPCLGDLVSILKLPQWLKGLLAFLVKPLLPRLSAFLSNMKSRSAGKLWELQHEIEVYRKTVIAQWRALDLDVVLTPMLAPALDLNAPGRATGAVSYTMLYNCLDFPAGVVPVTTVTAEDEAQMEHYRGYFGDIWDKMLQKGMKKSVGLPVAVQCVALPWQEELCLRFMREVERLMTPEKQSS

For this assay, the target named is FAAH (Homo sapiens (Human), UniProt O00519). The experiment in a line: Assay Method 1: FAAH assay, T84 cell homogenate, 3H-anandamide hydrolysis. The assay is classed as biochemical. The following applies: 3H-AEA tracer 200 nM, 1 h at rt. The method, then:
T84 frozen pellets (contents of 1-4×15 cm culture dishes) were homogenized in 300 mL of FAAH assay buffer (125 mM Tris, 1 mM EDTA, 0.2% glycerol, 0.02% Triton X-100, 0.4 mM Hepes, pH 9). The assay mixture was prepared from 50 μL of the cell homogenate, 10 μL of the test compound, and 40 μL of anandamide [1-3H-ethanolamine] (^3H-AEA; Perkin-Elmer, 10.3 Ci/mmol), which was added last, for a final tracer concentration of 200 nM. The reaction mixture was incubated at rt for 1 hour (h). During the incubation, 96-well Multiscreen filter plates (catalog number MAFCNOB50; Millipore, Bedford, Mass., USA) were loaded with 25 μL of activated charcoal (Multiscreen column loader, catalog number MACL09625, Millipore) and washed once with 100 μL of MeOH. Also during the incubation, 96-well DYNEX MicroLite plates (catalog number NL510410) were loaded with 100 μL of MicroScint40 (catalog number 6013641, Packard Bioscience, Meriden, Conn., USA). After the 1 h incubation, 60 μL of the reaction mixture were transferred to the charcoal plates, which were then assembled on top of the DYNEX plates using Centrifuge Alignment Frames (catalog number MACF09604, Millipore). The unbound, labeled ethanolamine was centrifuged through to the bottom plate (5 min at 2000 rpm), which was preloaded with the scintillant, as described above. The plates were sealed and left at rt for 1 h before counting on a Hewlett Packard TopCount.
`O=C(Nc1ccccc1)N1CCN(Cc2cc3ccccc3s2)CC1` [Example 20, 4-Benzo[b]thiophen-2-ylmethyl-piperazine-1-carboxylic acid phenylamide] gave a pIC50 of 7.72.

Turning to `O=C(Nc1ccccc1)N1CCN(Cc2cnc3ccccc3c2)CC1` [Example 23, 4-Quinolin-3-ylmethyl-piperazine-1-carboxylic acid phenylamide], the pIC50 was 7.14.

`O=C(Nc1ccccc1)N1CCN(Cc2ccc(I)cc2)CC1` [Example 24, 4-(4-Iodo-benzyl)-piperazine-1-carboxylic acid phenylamide] gave a pIC50 of 7.28.

In the case of `O=C(Nc1ccccc1)N1CCN(Cc2cccc(OCc3ccccc3)c2)CC1` [Example 25, 4-(3-Benzyloxy-benzyl)-piperazine-1-carboxylic acid phenylamide], the pIC50 is 7.24.

For the compound `O=C(Nc1ccccc1)N1CCN(Cc2ccc(Br)cc2)CC1` [Example 27, 4-(4-Bromo-benzyl)-piperazine-1-carboxylic acid phenylamide], the pIC50 is 7.16.

`O=C(Nc1ccccc1)N1CCN(Cc2cccc(Oc3ccccc3)c2)CC1` [Example 28, 4-(3-Phenoxy-benzyl)-piperazine-1-carboxylic acid phenylamide] gave a pIC50 of 7.10.

As to `O=C(Nc1ccccc1)N1CCN(Cc2ccc(F)c(Br)c2)CC1` [Example 29, 4-(3-Bromo-4-fluoro-benzyl)-piperazine-1-carboxylic acid phenylamide], the pIC50 was 6.92.

The compound `O=C(Nc1ccccc1)N1CCN(Cc2ccc3c(c2)CCC3)CC1` [Example 30, 4-Indan-5-ylmethyl-piperazine-1-carboxylic acid phenylamide] gave a pIC50 of 6.74.

For `O=C(Nc1ccccc1)N1CCN(Cc2csc3ccccc23)CC1` [Example 31, 4-Benzo[b]thiophen-3-ylmethyl-piperazine-1-carboxylic acid phenylamide], the pIC50 was 6.70.

The compound `CCc1ccc(CN2CCN(C(=O)Nc3ccccc3)CC2)cc1` [Example 33, 4-(4-Ethyl-benzyl)-piperazine-1-carboxylic acid phenylamide] gave a pIC50 of 6.55.

Turning to `O=C(Nc1ccccc1)N1CCN(Cc2ccc3c(c2)OCCO3)CC1` [Example 35, 4-(2,3-Dihydro-benzo[1,4]dioxin-6-ylmethyl)-piperazine-1-carboxylic acid phenylamide], the pIC50 was 6.34.

With `COc1ccc(CN2CCN(C(=O)Nc3ccccc3)CC2)cc1` [Example 36, 4-(4-Methoxy-benzyl)-piperazine-1-carboxylic acid phenylamide], the pIC50 was 6.33.

In turn, `C=Cc1cccc(CN2CCN(C(=O)Nc3ccccc3)CC2)c1` [Example 37, 4-(3-Vinyl-benzyl)-piperazine-1-carboxylic acid phenylamide] showed a pIC50 of 6.23.

As to `O=C(Nc1ccccc1)N1CCN(Cc2ccc3c(c2)CCO3)CC1` [Example 38, 4-(2,3-Dihydro-benzofuran-5-ylmethyl)-piperazine-1-carboxylic acid phenylamide], the pIC50 is 6.21.

With `COc1cccc(CN2CCN(C(=O)Nc3ccccc3)CC2)c1` [Example 39, 4-(3-Methoxy-benzyl)-piperazine-1-carboxylic acid phenylamide], the pIC50 was 5.96.

For the compound `O=C(Nc1ccccc1)N1CCN(Cc2cccc3ccccc23)CC1` [Example 40, 4-Naphthalen-1-ylmethyl-piperazine-1-carboxylic acid phenylamide], the pIC50 was 5.96.

On to `Cc1cccc(CN2CCN(C(=O)Nc3ccccc3)CC2)c1` [Example 42, 4-(3-Methyl-benzyl)-piperazine-1-carboxylic acid phenylamide], for which the pIC50 was 5.70.

As to `O=C(Nc1ccccc1)N1CCN(Cc2ccc3[nH]ccc3c2)CC1` [Example 43, 4-(1H-Indol-5-ylmethyl)-piperazine-1-carboxylic acid phenylamide], the pIC50 is 5.40.

On to `COc1ccc(CN2CCN(C(=O)Nc3ccccc3)CC2)cc1OC` [Example 44, 4-(3,4-Dimethoxy-benzyl)-piperazine-1-carboxylic acid phenylamide], for which the pIC50 is 5.40.

`O=C(Nc1ccccc1)N1CCN(Cc2ccncc2)CC1` [Example 45, 4-Pyridin-4-ylmethyl-piperazine-1-carboxylic acid phenylamide] had a pIC50 below 5.00.

`O=C(Nc1ccccc1)N1CCN(Cc2ccccn2)CC1` [Example 46, 4-Pyridin-2-ylmethyl-piperazine-1-carboxylic acid phenylamide] gave a pIC50 below 5.00.

The compound `O=C(Nc1ccccc1)N1CCN(Cc2cccnc2)CC1` [Example 47, 4-Pyridin-3-ylmethyl-piperazine-1-carboxylic acid phenylamide] showed a pIC50 below 5.00.

`CC(C)Oc1ccc(CN2CCN(C(=O)Nc3ccccc3)CC2)cc1` [Example 48, 4-(4-Isopropoxy-benzyl)-piperazine-1-carboxylic acid phenylamide] had a pIC50 of 5.46.

For `O=C(Nc1ccccc1)N1CCN(Cc2ccc(-c3ccccc3)cc2)CC1` [Example 49, 4-Biphenyl-4-ylmethyl-piperazine-1-carboxylic acid phenylamide], the pIC50 was 5.35.

For `O=C(Nc1ccccc1)N1CCN(Cc2ccnc3ccccc23)CC1` [Example 50, 4-Quinolin-4-ylmethyl-piperazine-1-carboxylic acid phenylamide], the pIC50 is 5.52.

For the compound `O=C(Nc1ccccc1)N1CCN(Cc2cccc3c2OCO3)CC1` [Example 51, 4-Benzo[1,3]dioxol-4-ylmethyl-piperazine-1-carboxylic acid phenylamide], the pIC50 was 5.22.

Turning to `Cn1ccc2cc(CN3CCN(C(=O)Nc4ccccc4)CC3)ccc21` [Example 53, 4-(1-Methyl-1H-indol-5-ylmethyl)-piperazine-1-carboxylic acid phenylamide], the pIC50 is 6.64.

Take `O=C(Nc1ccccc1)N1CCN(Cc2ccc3cc(Cl)ccc3n2)CC1` [Example 54, 4-(6-Chloro-quinolin-2-ylmethyl)-piperazine-1-carboxylic acid phenylamide]: the pIC50 is 6.77.

`O=C(Nc1ccccc1)N1CCN(Cc2ccc3cccc(Cl)c3n2)CC1` [Example 55, 4-(8-Chloro-quinolin-2-ylmethyl)-piperazine-1-carboxylic acid phenylamide] had a pIC50 of 7.55.

The compound `O=C(Nc1ccccc1)N1CCN(Cc2cc3ccccc3nc2Cl)CC1` [Example 56, 4-(2-Chloro-quinolin-3-ylmethyl)-piperazine-1-carboxylic acid phenylamide] had a pIC50 of 5.05.

Take `O=C(Nc1ccc(F)cc1)N1CCN(Cc2ccc3ccccc3n2)CC1` [Example 58, 4-Quinolin-2-ylmethyl-piperazine-1-carboxylic acid (4-fluoro-phenyl)-amide]: the pIC50 is 7.00.

In turn, `O=C(Nc1ccccc1)N1CCN(Cc2cccc(Oc3ccc(Cl)cc3)c2)CC1` [Example 60, 4-[3-(4-Chloro-phenoxy)-benzyl]-piperazine-1-carboxylic acid phenylamide] had a pIC50 of 8.05.

On to `O=C(Nc1ccccc1)N1CCN(Cc2cccc(Oc3ccc(Cl)c(Cl)c3)c2)CC1` [Example 61, 4-[3-(3,4-Dichloro-phenoxy)-benzyl]-piperazine-1-carboxylic acid phenylamide], for which the pIC50 is 7.70.

Take `Cc1ccc(Oc2cccc(CN3CCN(C(=O)Nc4ccccc4)CC3)c2)cc1` [Example 62, 4-(3-p-Tolyloxy-benzyl)-piperazine-1-carboxylic acid phenylamide]: the pIC50 is 7.74.

The compound `CC(C)(C)c1ccc(Oc2cccc(CN3CCN(C(=O)Nc4ccccc4)CC3)c2)cc1` [Example 63, 4-[3-(4-tert-Butyl-phenoxy)-benzyl]-piperazine-1-carboxylic acid phenylamide] gave a negative-log IC50 (pIC50) of 7.16.

`O=C(Nc1ccccc1)N1CCN(Cc2cccc(Oc3cccc(C(F)(F)F)c3)c2)CC1` [Example 64, 4-[3-(3-Trifluoromethyl-phenoxy)-benzyl]-piperazine-1-carboxylic acid phenylamide]: the pIC50 is 6.66.

Take `COc1ccc(Oc2cccc(CN3CCN(C(=O)Nc4ccccc4)CC3)c2)cc1` [Example 65, 4-[3-(4-Methoxy-phenoxy)-benzyl]-piperazine-1-carboxylic acid phenylamide]: the pIC50 was 8.05.

The compound `COc1ccc2cc(CN3CCN(C(=O)Nc4ccccc4)CC3)ccc2c1` [Example 66, 4-(6-Methoxy-naphthalen-2-ylmethyl)-piperazine-1-carboxylic acid phenylamide] showed a pIC50 of 5.80.

Compound `O=C(Nc1ccccc1)N1CCN(Cc2cc3ccccc3c3ccccc23)CC1` [Example 67, 4-Phenanthren-9-ylmethyl-piperazine-1-carboxylic acid phenylamide] gave a pIC50 of 5.10.

The compound `O=C(Nc1ccccc1)N1CCN(Cc2cnc3ccc(Cl)cc3c2)CC1` [Example 69, 4-(6-Chloro-quinolin-3-ylmethyl)-piperazine-1-carboxylic acid phenylamide] gave a pIC50 of 7.64.

Compound `O=C(Nc1ccccc1)N1CCN(Cc2cccc(-c3ccccc3)c2)CC1` [Example 70, 4-Biphenyl-3-ylmethyl-piperazine-1-carboxylic acid phenylamide] gave a pIC50 of 6.39.

One may read the pIC50 as −log10 of the IC50, conventionally taken in molar units. Higher therefore signals a low IC50.
